Source: patent publication US8901118B2, “Compounds and methods for kinase modulation, and indications therefor” (Plexxikon Inc., priority 2010, dated 2014)

Tests used:
CYP1A2 = target: T1, CYP1A2 (Homo sapiens, UniProt P05177); experiment: CYP1A2 inhibition (fluorescent substrate CEC); format: in vitro ADME; conditions: read-out: Cyp IC50 1A2
T1 sequence (P05177 1-516): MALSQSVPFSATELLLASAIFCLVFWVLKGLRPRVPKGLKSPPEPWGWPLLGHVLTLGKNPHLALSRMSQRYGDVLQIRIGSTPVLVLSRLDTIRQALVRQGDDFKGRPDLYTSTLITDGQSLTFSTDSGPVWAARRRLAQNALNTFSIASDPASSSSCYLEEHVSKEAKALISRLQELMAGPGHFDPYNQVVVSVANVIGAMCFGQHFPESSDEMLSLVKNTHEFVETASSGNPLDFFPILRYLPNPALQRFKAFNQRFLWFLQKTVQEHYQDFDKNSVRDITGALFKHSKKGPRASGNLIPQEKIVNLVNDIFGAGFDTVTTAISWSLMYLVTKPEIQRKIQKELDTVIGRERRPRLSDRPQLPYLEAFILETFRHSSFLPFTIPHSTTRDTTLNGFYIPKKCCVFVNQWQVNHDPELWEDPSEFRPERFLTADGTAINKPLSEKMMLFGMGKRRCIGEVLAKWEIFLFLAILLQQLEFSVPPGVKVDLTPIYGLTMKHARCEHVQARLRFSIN
Summary of the method: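 Test compounds, 10-point 1:1 serial dilutions in NADPH-regenerating cofactor mix, were preincubated 10 min at 37° C before recombinant enzyme and fluorogenic substrate reactions at 37° C (CYP1A2 15 min; CYP2C9 45 min; CYP2C19, 2D6 30 min). Product fluorescence was read at 409 ex with 460 em (1A2, 2C19) or 530 em (2C9, 2D6), and IC50 fitted from signal versus concentration.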

BCR-KIT BaF3 cells = target: T2, BCR-KIT BaF3 cells (Homo sapiens, UniProt P10721); experiment: BaF3 BCR-KIT cell proliferation assay (ATPlite); format: cell-based; conditions: read-out: Inhibition of Cell Proliferation IC50, BCR/BaF3 Kit
T2 construct: fused on or other part: P11274 (Breakpoint cluster region protein)
T2 sequence (P10721 589-937): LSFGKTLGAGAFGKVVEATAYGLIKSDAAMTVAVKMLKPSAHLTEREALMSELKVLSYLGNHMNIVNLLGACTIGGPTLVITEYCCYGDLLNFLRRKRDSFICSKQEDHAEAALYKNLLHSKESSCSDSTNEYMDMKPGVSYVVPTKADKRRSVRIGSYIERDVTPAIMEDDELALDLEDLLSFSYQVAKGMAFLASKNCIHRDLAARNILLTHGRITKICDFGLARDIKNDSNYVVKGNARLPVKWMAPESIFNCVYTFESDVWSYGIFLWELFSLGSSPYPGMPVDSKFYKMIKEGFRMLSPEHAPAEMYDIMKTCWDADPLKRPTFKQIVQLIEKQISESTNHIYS
Summary of the method: (§1)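 BaF3 lines were seeded at 10,000 cells/well in growth medium with 1 mg/mL G418 but no IL-3, and MV-4-11 cells at 25,000 cells/well; plates were left overnight at 37 °C. Compounds were added as an 8-point 1:3 series with a top concentration of 10 μM and incubated 3 days. IC50 was taken from ATPlite luminescence.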

BCR-NTRK3 BaF3 cells = target: T3, BCR-NTRK3 BaF3 cells (Homo sapiens, UniProt Q16288); experiment: BaF3 BCR-NTRK3 cell proliferation assay (ATPlite); format: cell-based; conditions: read-out: Inhibition of Cell Proliferation IC50, BCR/BaF3 TrkC
T3 construct: fused on or other part: P11274 (Breakpoint cluster region protein)
T3 sequence (Q16288 whole entry, the tested form may be a part): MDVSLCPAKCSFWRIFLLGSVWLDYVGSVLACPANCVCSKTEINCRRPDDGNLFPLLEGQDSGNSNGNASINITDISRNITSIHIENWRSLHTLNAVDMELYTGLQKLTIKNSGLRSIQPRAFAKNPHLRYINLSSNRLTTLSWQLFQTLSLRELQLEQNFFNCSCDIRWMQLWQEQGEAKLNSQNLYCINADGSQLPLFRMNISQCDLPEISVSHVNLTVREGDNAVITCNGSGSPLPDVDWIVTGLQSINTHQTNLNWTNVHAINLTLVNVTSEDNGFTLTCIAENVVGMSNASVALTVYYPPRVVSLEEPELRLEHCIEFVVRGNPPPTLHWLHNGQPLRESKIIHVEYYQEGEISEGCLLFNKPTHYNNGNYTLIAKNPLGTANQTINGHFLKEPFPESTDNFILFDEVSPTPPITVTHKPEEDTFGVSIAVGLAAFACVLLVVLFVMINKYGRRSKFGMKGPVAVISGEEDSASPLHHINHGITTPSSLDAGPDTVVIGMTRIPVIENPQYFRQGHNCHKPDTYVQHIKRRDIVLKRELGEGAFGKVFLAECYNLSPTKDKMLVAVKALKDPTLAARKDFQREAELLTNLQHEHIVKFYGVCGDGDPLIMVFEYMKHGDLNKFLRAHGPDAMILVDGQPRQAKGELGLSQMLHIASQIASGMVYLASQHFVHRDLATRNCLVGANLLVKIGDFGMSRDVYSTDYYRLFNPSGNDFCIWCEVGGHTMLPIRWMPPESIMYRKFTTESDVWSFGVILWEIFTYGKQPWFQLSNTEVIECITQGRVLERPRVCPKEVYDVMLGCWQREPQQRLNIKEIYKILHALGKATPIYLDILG
Summary of the method: as §1

CYP3A4(BQ) = CYP3A4(BQ) (Homo sapiens, UniProt P08684); experiment: CYP3A4(BQ) inhibition; format: in vitro ADME; conditions: CYP3A4, substrate BQ; read-out: Cyp IC50 3A4(BQ)
Sequence of CYP3A4(BQ) (P08684 whole entry): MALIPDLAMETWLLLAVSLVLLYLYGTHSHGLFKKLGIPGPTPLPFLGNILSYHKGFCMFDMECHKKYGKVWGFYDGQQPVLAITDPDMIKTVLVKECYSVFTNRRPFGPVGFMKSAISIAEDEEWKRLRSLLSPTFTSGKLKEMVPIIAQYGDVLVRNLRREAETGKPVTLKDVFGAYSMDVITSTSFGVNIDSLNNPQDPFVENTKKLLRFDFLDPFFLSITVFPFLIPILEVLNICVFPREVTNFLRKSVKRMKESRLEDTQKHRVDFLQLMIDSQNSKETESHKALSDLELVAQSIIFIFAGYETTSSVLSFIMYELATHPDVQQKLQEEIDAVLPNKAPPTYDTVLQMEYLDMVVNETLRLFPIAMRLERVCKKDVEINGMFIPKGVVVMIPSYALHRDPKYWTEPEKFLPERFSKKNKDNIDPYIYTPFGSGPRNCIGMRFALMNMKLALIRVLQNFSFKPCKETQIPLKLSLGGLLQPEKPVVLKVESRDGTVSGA
Summary of the method: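 Inhibition of human CYP3A4 (BQ substrate) was measured by fluorescence, since blocking metabolism of a known substrate lowers the fluorescent product signal. Compounds dissolved in DMSO at 100 mM were diluted into acetonitrile and then into NADPH regeneration cofactor mix, serially diluted 1:1 across 10 points, and preincubated in 384 well plates for 10 minutes at 37° C.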

Compound	IC50 (CYP1A2) [µM]	IC50 (BCR-KIT BaF3 cells) [µM]	IC50 (BCR-NTRK3 BaF3 cells) [µM]	IC50 (CYP3A4(BQ)) [µM]
O=C(c1ccc(Nc2ccc(C3CC3)nc2)nc1F)c1c[nH]c2ncnc(NC3CC3)c12 [Compound P-4093, [4-(cyclopropylamino)-7H-pyrrolo[2,3-d]pyrimidin-5-yl]-[6-[(6-cyclopropyl-3-pyridyl)amino]-2-fluoro-3-pyridyl]methanone]	> 10	< 0.1	< 0.01	> 10
COCCCNc1ncnc2[nH]cc(C(=O)c3ccc(Nc4ccc(OC)nc4)nc3F)c12 [Compound P-4079, [2-fluoro-6-[(6-methoxy-3-pyridyl)amino]-3-pyridyl]-[4-(3-methoxypropylamino)-7H-pyrrolo[2,3-d]pyrimidin-5-yl]methanone]	> 10	< 0.1	< 0.01	> 10
O=C(c1ccc(NC2CCC(F)(F)CC2)nc1)c1c[nH]c2ncnc(NC3CC3)c12 [Compound P-4088, [4-(cyclopropylamino)-7H-pyrrolo[2,3-d]pyrimidin-5-yl]-[6-[(4,4-difluorocyclohexyl)amino]-3-pyridyl]methanone]	> 10	< 1	< 0.01	> 10
COc1ccc(Nc2ccc(C(=O)c3c[nH]c4ncnc(NC5CCC5)c34)c(F)n2)cn1 [Compound P-4076, [4-(cyclobutylamino)-7H-pyrrolo[2,3-d]pyrimidin-5-yl]-[2-fluoro-6-[(6-methoxy-3-pyridyl)amino]-3-pyridyl]methanone]	> 10	< 0.1	< 0.01	> 5
CNc1ncnc2[nH]cc(C(=O)c3ccc(NC4CCC(F)(F)CC4)nc3Cl)c12 [Compound P-4058, [2-chloro-6-[(4,4-difluorocyclohexyl)amino]-3-pyridyl]-[4-(methylamino)-7H-pyrrolo[2,3-d]pyrimidin-5-yl]methanone]	> 10	< 1	< 0.1	> 10
COc1ccc(Nc2ccc(C(=O)c3c[nH]c4ncnc(NC(C)(C)C)c34)c(F)n2)cn1 [Compound P-4055, [4-(tert-butylamino)-7H-pyrrolo[2,3-d]pyrimidin-5-yl]-[2-fluoro-6-[(6-methoxy-3-pyridyl)amino]-3-pyridyl]methanone]	< 10	> 1	< 0.01	> 10
CCc1ccc(Nc2ccc(C(=O)c3c[nH]c4ncnc(N)c34)c(F)n2)cn1 [Compound P-4065, (4-amino-7H-pyrrolo[2,3-d]pyrimidin-5-yl)-[6-[(6-ethyl-3-pyridyl)amino]-2-fluoro-3-pyridyl]methanone]	> 10	< 0.1	< 0.01	> 10
COc1cncc(Nc2ccc(C(=O)c3c[nH]c4ncnc(NC5CCCCC5)c34)c(F)n2)c1 [Compound P-4104, [4-(cyclohexylamino)-7H-pyrrolo[2,3-d]pyrimidin-5-yl]-[2-fluoro-6-[(5-methoxy-3-pyridyl)amino]-3-pyridyl]methanone]	> 10	> 1	< 0.1	> 10
CCc1ccc(Nc2ccc(C(=O)c3c[nH]c4ncnc(NC5CCOCC5)c34)c(F)n2)cn1 [Compound P-4116, [6-[(6-ethyl-3-pyridyl)amino]-2-fluoro-3-pyridyl]-[4-(tetrahydropyran-4-ylamino)-7H-pyrrolo[2,3-d]pyrimidin-5-yl]methanone]	> 10	< 0.1	< 0.01	> 10
CCN1CCC(Nc2ncnc3[nH]cc(C(=O)c4ccc(Nc5ccc(OC)nc5)nc4F)c23)CC1 [Compound P-4074, [4-[(1-ethyl-4-piperidyl)amino]-7H-pyrrolo[2,3-d]pyrimidin-5-yl]-[2-fluoro-6-[(6-methoxy-3-pyridyl)amino]-3-pyridyl]methanone]	> 10	< 1	< 0.01	> 10
CCC(C)Nc1ncnc2[nH]cc(C(=O)c3ccc(Nc4ccc(OC)nc4)nc3F)c12 (stereo not drawn) [Compound P-4078, [2-fluoro-6-[(6-methoxy-3-pyridyl)amino]-3-pyridyl]-[4-(sec-butylamino)-7H-pyrrolo[2,3-d]pyrimidin-5-yl]methanone]	5 to 10	< 0.1	< 0.01	> 10
O=C(c1ccc(Nc2ccc(C3CC3)nc2)nc1F)c1c[nH]c2ncnc(NCC(F)(F)F)c12 [Compound P-4090, [6-[(6-cyclopropyl-3-pyridyl)amino]-2-fluoro-3-pyridyl]-[4-(2,2,2-trifluoroethylamino)-7H-pyrrolo[2,3-d]pyrimidin-5-yl]methanone]	> 10	< 1	< 0.01	> 10
CCCNc1ncnc2[nH]cc(C(=O)c3ccc(Nc4ccc(CC)nc4)nc3F)c12 [Compound P-4122, [6-[(6-ethyl-3-pyridyl)amino]-2-fluoro-3-pyridyl]-[4-(propylamino)-7H-pyrrolo[2,3-d]pyrimidin-5-yl]methanone]	> 10	< 0.1	< 0.01	> 10
COc1ccc(Nc2ccc(C(=O)c3c[nH]c4ncnc(NC5CCC(F)(F)CC5)c34)c(F)n2)cn1 [Compound P-4056, [4-[(4,4-difluorocyclohexyl)amino]-7H-pyrrolo[2,3-d]pyrimidin-5-yl]-[2-fluoro-6-[(6-methoxy-3-pyridyl)amino]-3-pyridyl]methanone]	> 10	> 1	< 0.01	> 10
CCc1ccc(Nc2ccc(C(=O)c3c[nH]c4ncnc(NCCOC)c34)c(F)n2)cn1 [Compound P-4119, [6-[(6-ethyl-3-pyridyl)amino]-2-fluoro-3-pyridyl]-[4-(2-methoxyethylamino)-7H-pyrrolo[2,3-d]pyrimidin-5-yl]methanone]	> 10	< 0.1	< 0.01	> 10
